The target of experiment [1] is human recombinant LPA1 Lysophospholipid receptor (Homo sapiens, UniProt Q92633). Put plainly: Calcium flux assay using FLIPR, LPA1 antagonist activity. The format is cell-based. As to conditions: for pIC50: ChemiScreen Calcium-optimized stable cell line, antagonist mode, inhibition of agonist-induced calcium flux. How it is done:
(§1) Calcium Flux Assay Using Fluorometric Imaging Plate Reader (FLIPR)
Cell Culture Conditions: The ChemiScreen Calcium-optimized stable cell line containing the human recombinant LPA1 Lysophospholipid receptor was purchased from Chemicon International, Inc./Millipore. The cells were cultured in DMEM-high glucose supplemented with 10% fetal bovine serum, 2 mM glutamine, 100 U/mL penicillin/100 μg/mL streptomycin, 1× non-essential amino acids, 10 mM HEPES and 0.25 mg/mL Geneticin. Cells were harvested with trypsin-EDTA and counted using ViaCount reagent. The cell suspension volume was adjusted to 2.0×10^5 cells/mL with complete growth media. Aliquots of 50 μL were dispensed into 384 well black/clear tissue culture treated plates (BD) and the microplates were placed in a 37° C. incubator overnight. The following day plates were used in the assay.
(§2) Dye Loading and Assay: Loading Buffer (FLIPR Calcium-4, Molecular Devices) was prepared by dissolving the contents of one bottle into 100 mL Hank's Balanced Salt Solution containing 20 mM HEPES and 2.5 mM probenecid. Plates were loaded onto Biotek plate washer and growth media was removed and replaced with 20 μL of Hank's Balanced Salt Solution containing 20 mM HEPES and 2.5 mM probenecid, followed by 25 μL of Loading Buffer. The plates were then incubated for 30 minutes at 37° C.
During the incubation, test compounds were prepared by adding 90 μL of HBSS/20 mM HEPES/0.1% BSA buffer to 2 μL of serially diluted compounds. To prepare serial dilutions, 10 mM stocks of compounds were prepared in 100% DMSO.
After incubation, both the cell and “assay” plates were brought to the FLIPR and 20 μL of the diluted compounds were transferred to the cell plates by the FLIPR. Compound addition was monitored by FLIPR to detect any agonist activity of the compounds. Plates were then incubated for 30 minutes at room temperature protected from light. […] During the assay, fluorescence readings were taken simultaneously from all 384 wells of the cell plate every 1.5 seconds. Five readings were taken to establish a stable baseline, then 20 μL of sample was rapidly (30 μL/sec) and simultaneously added to each well of the cell plate. The fluorescence was continuously monitored before, during and after sample addition for a total elapsed time of 100 seconds. Responses (increase in peak fluorescence) in each well following agonist addition was determined. The initial fluorescence reading from each well, prior to ligand stimulation, was used as zero baseline value for the data from that well. The responses were expressed as % inhibition of the buffer control.

The target of the next experiment is T1, LPA3 (Homo sapiens, UniProt Q9UBY5).
T1 sequence (Q9UBY5 1-353): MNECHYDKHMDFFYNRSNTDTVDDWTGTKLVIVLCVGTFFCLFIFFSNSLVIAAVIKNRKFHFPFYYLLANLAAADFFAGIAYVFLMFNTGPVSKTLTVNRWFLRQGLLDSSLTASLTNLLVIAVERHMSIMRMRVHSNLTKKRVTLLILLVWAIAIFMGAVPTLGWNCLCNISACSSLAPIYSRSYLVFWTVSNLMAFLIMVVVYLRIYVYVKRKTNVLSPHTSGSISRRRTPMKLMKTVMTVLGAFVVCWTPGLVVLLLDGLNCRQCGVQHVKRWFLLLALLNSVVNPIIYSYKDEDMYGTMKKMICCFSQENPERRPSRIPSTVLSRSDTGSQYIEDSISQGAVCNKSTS
Briefly: Calcium flux assay using FLIPR, LPA3 antagonist activity. As to conditions: antagonist activity. It is filed as cell-based. How it is done:
as §1, §2
During the incubation, test compounds were prepared by adding 90 μL of HBSS/20 mM HEPES/0.1% BSA buffer to 2 μL of serially diluted compounds. To prepare serial dilutions, 10 mM stocks of compounds were prepared in 100% DMSO. The compound dilution plate was set up as follows: well #1 received 29 μL of stock compound and 31 μL DMSO; wells 2-10 received 40 μL of DMSO; mixed and transferred 20 μL of solution from well #1 into well #2; continued with 1:3 serial dilutions out 10 steps; transferred 2 μL of diluted compound into duplicate wells of 384 well “assay plate” and then added the 90 μL of buffer.
After incubation, both the cell and “assay” plates were brought to the FLIPR and 20 μL of the diluted compounds were transferred to the cell plates by the FLIPR. Compound addition was monitored by FLIPR to detect any agonist activity of the compounds. Plates were then incubated for 30 minutes at room temperature protected from light. After the incubation, plates were returned to the FLIPR and 20 μL of 4.5× concentrated agonist was added to the cell plates. During the assay, fluorescence readings were taken simultaneously from all 384 wells of the cell plate every 1.5 seconds. Five readings were taken to establish a stable baseline, then 20 μL of sample was rapidly (30 μL/sec) and simultaneously added to each well of the cell plate. The fluorescence was continuously monitored before, during and after sample addition for a total elapsed time of 100 seconds. Responses (increase in peak fluorescence) in each well following agonist addition was determined. The initial fluorescence reading from each well, prior to ligand stimulation, was used as zero baseline value for the data from that well. The responses were expressed as % inhibition of the buffer control.

pIC50: −log10 of the molar value. Bounds are passed on as bounds.

Chain of human recombinant LPA1 Lysophospholipid receptor (Q92633 whole entry): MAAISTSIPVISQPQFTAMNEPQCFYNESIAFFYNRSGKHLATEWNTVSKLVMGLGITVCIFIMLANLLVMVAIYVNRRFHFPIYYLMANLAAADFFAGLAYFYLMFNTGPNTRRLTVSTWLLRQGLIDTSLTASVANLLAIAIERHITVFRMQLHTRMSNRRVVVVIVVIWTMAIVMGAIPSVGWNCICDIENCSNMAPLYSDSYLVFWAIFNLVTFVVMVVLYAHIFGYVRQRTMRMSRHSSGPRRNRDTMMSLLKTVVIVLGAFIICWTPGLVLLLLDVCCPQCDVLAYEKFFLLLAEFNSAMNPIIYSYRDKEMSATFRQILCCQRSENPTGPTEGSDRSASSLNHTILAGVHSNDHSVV

As for `Cc1nnn(-c2ccc(-c3ccc(C#N)cc3)cc2)c1NC(=O)O[C@H](C)c1ccccc1` [Example 28, [3-(4′-Cyano-biphenyl-4-yl)-5-methyl-3H-[1,2,3]triazol-4-yl]-carbamic acid (R)-1-phenyl-ethyl ester], the negative logarithm of the IC50 (pIC50) (in experiment [1]; on LPA3) was < 4.52 throughout.
`Cc1nnn(-c2ccc(-c3ccc(C4(C(=O)NS(C)(=O)=O)CC4)cc3)cc2)c1NC(=O)O[C@H](C)c1ccccc1` [Example 30, {3-[4′-(1-Methanesulfonylaminocarbonyl-cyclopropyl)-biphenyl-4-yl]-5-methyl-3H[1,2,3]triazol-4-yl}-carbamic acid (R)-1-phenyl-ethyl ester]: the negative-log IC50 (pIC50) (commonly −log10 of the IC50, conventionally taken in molar units) is 7.48 in experiment [1] and < 4.52 at LPA3.
For the molecule `C[C@@H](OC(=O)Nc1nncn1-c1ccc(-c2ccc(C3(C(=O)O)CC3)cc2)cc1)c1ccccc1` [Example 31, 1-{4′-[3-((R)-1-Phenyl-ethoxycarbonylamino)-[1,2,4]triazol-4-yl]-biphenyl-4-yl}-cyclopropanecarboxylic acid], the inhibition (in general, the share of the control response that was lost under treatment) at 30 µM in experiment [1] (@ 30 μM) turned out to be 11%. Further, the negative-log IC50 (pIC50) (in experiment [1]; on LPA3) was < 4.52 in each case.
Turning to `C=CCC(C(=O)O)c1ccc(-c2ccc(-n3nnc(C)c3NC(=O)O[C@H](C)c3ccccc3)cc2)cc1` (stereo partly drawn) [Example 33, (R)-2-{4′-[4-Methyl-5-(-1-phenylethoxycarbonylamino)-[1,2,3]triazol-1-yl]-biphenyl-4-yl}-pent-4-enoic acid], the pIC50 was 7.06 in experiment [1] and < 4.52 at LPA3.
Regarding `Cc1nnn(-c2ccc(C3CCC(CC(=O)O)CC3)cc2)c1NC(=O)O[C@H](C)c1ccccc1` (stereo partly drawn) [Example 34, (R)-2-(4-(4-(4-Methyl-5-((1-phenylethoxy)carbonylamino)-1H-1,2,3-triazol-1-yl)phenyl)cyclohexyl)acetic acid], the negative logarithm of the IC50 (pIC50) in experiment [1] is 5.02; at LPA3 it was < 4.52.
The like results for `Cc1nnn(-c2ccc(-c3ccc(C4(C(=O)NS(C)(=O)=O)CC4)cc3)cc2)c1NC(=O)O[C@H](C)c1cccc(C(F)(F)F)c1` [Example 35, {3-[4′-(1-Methanesulfonylaminocarbonyl-cyclopropyl)-biphenyl-4-yl]-5-methyl-3H[1,2,3]triazol-4-yl}-carbamic acid (R)-1-(3-trifluoromethyl-phenyl)-ethyl ester] were, in that order, 5.34 and 5.24.

Source of the values: US20150133512A1, “N-ARYLTRIAZOLE COMPOUNDS AS LPAR ANTAGONISTS” (Hoffmann-La Roche Inc,, priority 2012, published 2015).
